Each block holds one molecule with its values, some of them ahead of it.
Legend:
Olfr1126 [1] = biological target: Olfr1126 (Mus musculus, UniProt Q7TR49); assay: 3-hydroxy-3-methyl-hexanoic acid concentration-dependent activation of Olfr1126: OR-dependent cAMP accumulation in a cell-based assay (functional dose-response); settings: agonist, mouse Olfr1126 (SEQ ID NO: 46), N-terminal FLAG/Rho/Lucy tags, HEK 293T cells, Gαolf, FIG. 9
From the text: (§1) The detection method pertains to OR-dependent accumulation of cAMP in said cells, as a result of OR activation by 3-hydroxy-3-methyl-hexanoic acid.
(§2) In a further embodiment, to complete the deorphanization process, the candidate OR genes are further expressed in vitro for confirmation of activity against the compounds used to isolate the olfactory sensory neurons and other structurally-related compounds of interest. […]
(§3) Neurons that were activated by DMTS were further isolated for full transcriptome analysis to identify the responsive odorant receptor. […] Amplified cDNA was then used to generate an Illumina cDNA library for Next-Generation-Sequencing and the generation of 100 base pair single read sequences. […]

Olfr1126 [2] = assay: Cell-based OR activation assay (cAMP accumulation); design: species or system mouse; settings: FIG. 9; OR-dependent accumulation of cAMP
From the text: as §1
(§4) In a further embodiment, to complete the deorphanization process, the candidate OR genes are further expressed in vitro for confirmation of activity against the compounds used to isolate the olfactory sensory neurons and other structurally-related compounds of interest. The mouse receptors identified from isolated olfactory neurons that respond to geonol, DMTS, 1-octen-3-ol, butyric acid, 3-methyl-2-hexenoic acid, 3-hydroxy-3-methyl-hexanoic acid or transpirol are modified at their N-terminus with short polypeptide sequences (e.g., FLAG® (SEQ ID NO: 48), Rho (SEQ ID NO: 50; 20 first amino acids of the bovine rhodopsin receptor), and/or Lucy (SEQ ID NO: 52; cleavable leucine-rich signal peptide sequence) tags), transiently expressed in HEK 293T cells, and stimulated separately with geonol, DMTS, 1-octen-3-ol, butyric acid, 3-methyl-2-hexenoic acid, 3-hydroxy-3-methyl-hexanoic acid or transpirol to confirm their identity as bona fide geonol, dimethyl trisulfide (DMTS), 1-octen-3-ol, butyric acid, 3-methyl-2-hexenoic acid, 3-hydroxy-3-methyl-hexanoic acid or transpirol receptors. In a further embodiment, an RTP1 gene can also be expressed in the cell lines whether through activation of the endogenous RTP1 gene or through transformation. […]

Olfr46 = assay: Cell-based OR activation assay (cAMP accumulation); design: species or system mouse; settings: FIG. 7; OR-dependent accumulation of cAMP
From the text: (§5) The detection method pertains to OR-dependent accumulation of cAMP in said cells, as a result of OR activation by transpirol.
as §4

Olfr263 [3] = assay: Cell-based OR activation assay (cAMP accumulation); design: species or system mouse; settings: FIG. 7 and 8; OR-dependent accumulation of cAMP
From the text: as §5
(§6) The detection method pertains to OR-dependent accumulation of cAMP in said cells, as a result of OR activation by 3-methyl-2-hexenoic acid.
as §4, with “receptors.” for “receptors. In a further embodiment, an RTP1 gene can also be expressed in the cell lines whether through activation of the endogenous RTP1 gene or through transformation.”

OR2W1 [4] = biological target: T1, OR2W1 (Homo sapiens, UniProt Q9Y3N9, M81V); assay: Cell-based OR activation assay (cAMP accumulation); design: expressed in transfected cells; host or cells: HEK293T expressing human Golf; settings: FIG. 7 and 8; OR-dependent accumulation of cAMP
T1 sequence (Q9Y3N9 1-320 M81V): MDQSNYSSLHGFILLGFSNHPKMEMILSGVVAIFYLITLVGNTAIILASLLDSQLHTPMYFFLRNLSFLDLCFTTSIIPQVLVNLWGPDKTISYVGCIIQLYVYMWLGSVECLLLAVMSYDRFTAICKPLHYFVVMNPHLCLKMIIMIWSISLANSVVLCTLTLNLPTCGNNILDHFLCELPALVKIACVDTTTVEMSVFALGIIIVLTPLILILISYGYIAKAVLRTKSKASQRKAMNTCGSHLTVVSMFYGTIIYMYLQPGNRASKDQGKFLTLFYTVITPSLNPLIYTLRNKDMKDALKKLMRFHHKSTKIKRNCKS
From the text: as §5, §6, §2
(§7) In the second method, a panel of odorant receptors comprising the 400 putatively functional human receptor repertoire were transfected into a cultured human HEK293T cell line described in WO2014/210585 expressing Human olfactory G-protein alpha subunit (Golf—SEQ. ID No. 49) and coupled to a cyclicAMP reporter. Said panel of in vitro odorant receptors were exposed to MCSs and the level of cAMP signal was measured for each receptor. […]

Olfr1322 [5] = assay: Cell-based OR activation assay (cAMP accumulation); design: species or system mouse; settings: FIG. 5; OR-dependent accumulation of cAMP
Olfr1487 [6] = assay: Cell-based OR activation assay (cAMP accumulation); design: species or system mouse; settings: FIG. 5; OR-dependent accumulation of cAMP
Olfr339 [7] = assay: Cell-based OR activation assay (cAMP accumulation); design: species or system mouse; settings: FIG. 5; OR-dependent accumulation of cAMP
OR11A1 [8] = biological target: T2, OR11A1 (Homo sapiens, UniProt Q9GZK7); assay: Cell-based OR activation assay (cAMP accumulation); design: expressed in transfected cells; host or cells: HEK293T expressing human Golf; settings: FIG. 5; OR-dependent accumulation of cAMP
Olfr96 [9] = assay: Cell-based OR activation assay (cAMP accumulation); design: species or system mouse; settings: FIG. 5; OR-dependent accumulation of cAMP
OR11A1 [10] = biological target: T2, OR11A1; assay: Geonol concentration-dependent activation of OR11A1: OR-dependent cAMP accumulation in a cell-based assay (functional dose-response); design: expressed in transfected cells; host or cells: HEK293T; settings: agonist, human OR11A1 (SEQ ID NO: 12), HEK293T cells expressing Golf, FIG. 5
From the text: (§8) The detection method pertains to OR-dependent accumulation of cAMP in said cells, as a result of OR activation by geonol.
as §2, §7

Olfr96 [11] = biological target: Olfr96 (Mus musculus, UniProt Q0VBG2); assay: Geonol concentration-dependent activation of Olfr96: OR-dependent cAMP accumulation in a cell-based assay (functional dose-response); settings: agonist, mouse Olfr96 (SEQ ID NO: 28), N-terminal FLAG/Rho/Lucy tags, HEK 293T cells, Gαolf, FIG. 5
From the text: as §8, §2, §3

Olfr1322 [12] = biological target: Olfr1322 (Mus musculus, UniProt Q7TQW3); assay: Geonol concentration-dependent activation of Olfr1322: OR-dependent cAMP accumulation in a cell-based assay (functional dose-response); settings: agonist, mouse Olfr1322 (SEQ ID NO: 73), N-terminal FLAG/Rho/Lucy tags, HEK 293T cells, Gαolf, FIG. 5
From the text: as §8, §2, §3

Olfr1487 [13] = biological target: Olfr1487 (Mus musculus, UniProt Q8VFQ6); assay: Geonol concentration-dependent activation of Olfr1487: OR-dependent cAMP accumulation in a cell-based assay (functional dose-response); settings: agonist, mouse Olfr1487 (SEQ ID NO: 42), N-terminal FLAG/Rho/Lucy tags, HEK 293T cells, Gαolf, FIG. 5
From the text: as §8, §2, §3

Olfr339 [14] = biological target: Olfr339 (Mus musculus, UniProt Q8VGK8); assay: Geonol concentration-dependent activation of Olfr339: OR-dependent cAMP accumulation in a cell-based assay (functional dose-response); settings: agonist, mouse Olfr339 (SEQ ID NO: 44), N-terminal FLAG/Rho/Lucy tags, HEK 293T cells, Gαolf, FIG. 5
From the text: as §8, §2, §3

Olfr398 = assay: Cell-based OR activation assay (cAMP accumulation); design: species or system mouse; settings: FIG. 6; OR-dependent accumulation of cAMP
Olfr120 = assay: Cell-based OR activation assay (cAMP accumulation); design: species or system mouse; settings: FIG. 6; OR-dependent accumulation of cAMP
Olfr93 = assay: Cell-based OR activation assay (cAMP accumulation); design: species or system mouse; settings: FIG. 6; OR-dependent accumulation of cAMP
Olfr1364 = assay: Cell-based OR activation assay (cAMP accumulation); design: species or system mouse; settings: FIG. 6; OR-dependent accumulation of cAMP
human sensory panel = assay: Sensory evaluation of geonol earthy/moss odor in binary mixtures with antagonists; assay type: in vivo; settings: percentage of geonol malodor (earthy/moss odor) remaining in binary iso-intense mixture vs REF; * = statistically different from geonol alone
From the text: Sensory Evaluation: Five 16 oz glass jars containing either REF (geonol only), geonol only control, antagonist only, mixture of geonol and isointense antagonist, or mixture of geonol and low intensity antagonist were presented to the panelists (last four samples were randomized across panelists). The panelists were asked to familiarize themselves with the earthy/moss odor quality from the REF jar first, then rate the pleasantness, earthy/moss odor intensity and overall odor intensity of the next four samples on a 0-10 linear scale. The inter-stimulus interval between the samples was two minutes to avoid adaptation.

[15] = test system: OR2W1 or OR1A1 olfactory receptor; assay: 1-octen-3-ol olfactory receptor antagonist cell-based inhibitory dose-response assay; settings: Table 3
From the text: Each cell line was screened with a volatile compound library for their inhibitory properties and potential 1-octen-3-ol smell inhibition.
Single concentration monitoring of the 1-octen-3-ol induced cell activity in the presence or absence of a test compound allowed for the identification of compounds with a putative suppression or inhibitory effect.

[16] = test system: T3, OR11A1 or OR2M3 olfactory receptor; assay: Geonol olfactory receptor antagonist cell-based inhibitory dose-response assay; design: species or system human; settings: Table 2; geonol induced receptor activity, geonol at EC50
T3 construct: fused on or other part: Possibly N-terminal FLAG, Rho and/or Lucy tags

OR2W1 [17] = biological target: T1, OR2W1; assay: Concentration-dependent activation of OR2W1: OR-dependent cAMP accumulation in a cell-based assay (functional dose-response); design: expressed in transfected cells; host or cells: HEK293T; settings: agonist 3-methyl-2-hexenoic acid, human OR2W1 (SEQ ID NO: 2), HEK293T cells expressing Golf, FIG. 8
From the text: as §5, §6, §2, §7

Olfr641 [18] = biological target: Olfr641 (Mus musculus, UniProt Q8VGX6); assay: 3-methyl-2-hexenoic acid concentration-dependent activation of Olfr641: OR-dependent cAMP accumulation in a cell-based assay (functional dose-response); settings: agonist, mouse Olfr641 (SEQ ID NO: 34), N-terminal FLAG/Rho/Lucy tags, HEK 293T cells, Gαolf, FIG. 8
From the text: as §6, §2, §3

Olfr641 [19] = assay: Cell-based OR activation assay (cAMP accumulation); design: species or system mouse; settings: FIG. 8; OR-dependent accumulation of cAMP
From the text: as §6, §4

OR51I2 = biological target: T4, OR51I2 (Homo sapiens, UniProt Q9H344); assay: 3-methyl-2-hexenoic acid concentration-dependent activation of OR51I2: OR-dependent cAMP accumulation in a cell-based assay (functional dose-response); settings: agonist, human OR51I2 (SEQ ID NO: 20), HEK293T cells expressing Golf, FIG. 8
T4 construct: expressed in transfected cells; host or cells: HEK293T
From the text: as §6, §2, §7

Olfr263 [20] = biological target: Olfr263 (Mus musculus, UniProt Q7TQT8); assay: Concentration-dependent activation of Olfr263: OR-dependent cAMP accumulation in a cell-based assay (functional dose-response); settings: agonist 3-methyl-2-hexenoic acid, mouse Olfr263 (SEQ ID NO: 22), N-terminal FLAG/Rho/Lucy tags, HEK 293T cells, Gαolf, FIG. 8
From the text: as §5, §6, §2, §3

OR5112 = biological target: T5, OR5112 (Homo sapiens, UniProt Q9H344); assay: Cell-based OR activation assay (cAMP accumulation); settings: FIG. 8; OR-dependent accumulation of cAMP
T5 construct: expressed in transfected cells; host or cells: HEK293T expressing human Golf
From the text: as §6, §2, §7

T2 sequence (Q9GZK7 whole entry): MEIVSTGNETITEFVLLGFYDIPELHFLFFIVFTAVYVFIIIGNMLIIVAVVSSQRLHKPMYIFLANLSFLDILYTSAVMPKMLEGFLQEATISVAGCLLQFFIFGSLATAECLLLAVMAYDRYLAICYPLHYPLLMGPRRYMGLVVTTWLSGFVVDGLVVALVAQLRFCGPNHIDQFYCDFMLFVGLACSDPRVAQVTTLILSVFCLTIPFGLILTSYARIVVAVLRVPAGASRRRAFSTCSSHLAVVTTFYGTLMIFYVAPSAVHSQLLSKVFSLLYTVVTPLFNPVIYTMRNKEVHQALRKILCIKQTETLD
Sequence of Olfr641 (Mus musculus, UniProt Q8VGX6) (Q8VGX6 1-312): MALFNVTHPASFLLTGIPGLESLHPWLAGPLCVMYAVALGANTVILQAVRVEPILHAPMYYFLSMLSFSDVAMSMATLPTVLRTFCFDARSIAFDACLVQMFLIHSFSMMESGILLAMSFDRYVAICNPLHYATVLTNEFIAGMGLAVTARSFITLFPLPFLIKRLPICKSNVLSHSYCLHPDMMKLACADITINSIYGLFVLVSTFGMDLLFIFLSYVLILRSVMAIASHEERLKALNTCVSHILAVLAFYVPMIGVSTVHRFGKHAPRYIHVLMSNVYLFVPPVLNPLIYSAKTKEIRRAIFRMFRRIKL
Sequence of Olfr1126 (Mus musculus, UniProt Q7TR49) (Q7TR49 1-314): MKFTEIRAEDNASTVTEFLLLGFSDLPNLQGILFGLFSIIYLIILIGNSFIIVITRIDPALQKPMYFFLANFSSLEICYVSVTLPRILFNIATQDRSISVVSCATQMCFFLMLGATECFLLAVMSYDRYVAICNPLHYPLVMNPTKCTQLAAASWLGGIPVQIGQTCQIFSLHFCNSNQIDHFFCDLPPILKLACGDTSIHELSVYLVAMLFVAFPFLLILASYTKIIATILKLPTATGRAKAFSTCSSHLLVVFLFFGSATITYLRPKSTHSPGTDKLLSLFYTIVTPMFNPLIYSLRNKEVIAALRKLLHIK
Sequence of Olfr339 (Mus musculus, UniProt Q8VGK8) (Q8VGK8 1-309): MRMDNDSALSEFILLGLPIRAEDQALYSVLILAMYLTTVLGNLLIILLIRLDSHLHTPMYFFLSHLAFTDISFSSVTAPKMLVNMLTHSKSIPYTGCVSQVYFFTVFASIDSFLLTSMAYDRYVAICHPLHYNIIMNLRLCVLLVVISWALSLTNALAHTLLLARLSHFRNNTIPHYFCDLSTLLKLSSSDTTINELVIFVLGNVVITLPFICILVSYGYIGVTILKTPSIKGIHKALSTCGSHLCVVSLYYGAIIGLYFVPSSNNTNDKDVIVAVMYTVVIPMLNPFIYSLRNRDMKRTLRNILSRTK
Sequence of Olfr1322 (Mus musculus, UniProt Q7TQW3) (Q7TQW3 1-310): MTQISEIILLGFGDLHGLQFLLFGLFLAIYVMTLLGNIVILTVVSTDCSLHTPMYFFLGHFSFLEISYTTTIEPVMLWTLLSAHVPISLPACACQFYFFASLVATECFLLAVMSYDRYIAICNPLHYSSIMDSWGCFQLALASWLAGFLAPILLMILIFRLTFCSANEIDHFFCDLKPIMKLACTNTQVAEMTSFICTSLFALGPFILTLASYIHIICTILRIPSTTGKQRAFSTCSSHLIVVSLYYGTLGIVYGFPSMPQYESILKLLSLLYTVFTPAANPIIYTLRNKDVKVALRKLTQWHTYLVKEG
Sequence of Olfr263 (Mus musculus, UniProt Q7TQT8) (Q7TQT8 1-317): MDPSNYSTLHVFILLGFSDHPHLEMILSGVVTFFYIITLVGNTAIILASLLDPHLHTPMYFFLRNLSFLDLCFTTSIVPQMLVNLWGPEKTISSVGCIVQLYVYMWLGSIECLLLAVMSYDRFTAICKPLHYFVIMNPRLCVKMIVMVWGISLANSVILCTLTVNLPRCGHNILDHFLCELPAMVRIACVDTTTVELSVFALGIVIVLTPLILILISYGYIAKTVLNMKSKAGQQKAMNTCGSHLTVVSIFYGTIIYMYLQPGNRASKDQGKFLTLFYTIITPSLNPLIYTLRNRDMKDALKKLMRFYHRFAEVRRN
T4 sequence (Q9H344 whole entry): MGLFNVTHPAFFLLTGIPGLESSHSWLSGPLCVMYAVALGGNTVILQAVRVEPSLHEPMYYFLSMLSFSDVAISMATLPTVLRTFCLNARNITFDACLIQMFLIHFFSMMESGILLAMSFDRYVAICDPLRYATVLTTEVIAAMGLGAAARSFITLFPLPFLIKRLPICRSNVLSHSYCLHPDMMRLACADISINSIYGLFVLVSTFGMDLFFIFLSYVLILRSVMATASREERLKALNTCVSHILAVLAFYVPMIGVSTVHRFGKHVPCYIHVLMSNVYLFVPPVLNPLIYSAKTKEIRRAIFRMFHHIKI
T5 sequence (Q9H344 whole entry): as above
Sequence of Olfr96 (Mus musculus, UniProt Q0VBG2) (Q0VBG2 1-313): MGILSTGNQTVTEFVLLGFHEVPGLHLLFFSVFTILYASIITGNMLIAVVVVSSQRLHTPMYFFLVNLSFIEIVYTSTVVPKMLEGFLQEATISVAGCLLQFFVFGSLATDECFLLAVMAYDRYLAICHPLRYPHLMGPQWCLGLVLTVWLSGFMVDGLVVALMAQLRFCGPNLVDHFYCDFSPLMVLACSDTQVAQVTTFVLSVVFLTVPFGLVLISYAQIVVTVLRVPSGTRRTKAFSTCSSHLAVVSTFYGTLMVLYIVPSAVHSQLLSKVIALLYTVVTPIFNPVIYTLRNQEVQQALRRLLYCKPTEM
Sequence of Olfr1487 (Mus musculus, UniProt Q8VFQ6) (Q8VFQ6 1-315): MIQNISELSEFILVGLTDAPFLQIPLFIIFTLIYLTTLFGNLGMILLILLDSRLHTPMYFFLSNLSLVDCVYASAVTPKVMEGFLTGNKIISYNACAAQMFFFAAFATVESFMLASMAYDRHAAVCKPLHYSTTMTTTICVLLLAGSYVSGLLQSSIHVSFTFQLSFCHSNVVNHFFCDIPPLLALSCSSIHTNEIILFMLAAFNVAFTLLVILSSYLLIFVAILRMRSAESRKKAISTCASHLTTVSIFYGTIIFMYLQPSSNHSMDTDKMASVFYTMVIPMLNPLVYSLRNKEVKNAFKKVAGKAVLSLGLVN

EC50 (Olfr1126 [1]): 40.3 µM
Molecule: CCCC(C)(O)CC(=O)O (stereo not shown) [3-hydroxy-3-methyl-hexanoic acid]
activation of Olfr1126 (Olfr1126 [2]): concentration-dependent and specific activation

Molecule: CCCC(C)(S)CCO (stereo not shown) [transpirol, 3-methyl-3-sulfanylhexanol]
activation of Olfr46 (Olfr46): concentration-dependent and specific activation
activation of Olfr263 (Olfr263 [3]): concentration-dependent and specific activation
activation of OR2W1 (OR2W1 [4]): concentration-dependent and specific activation

Molecule: CC1CCCC2(C)CCCCC12O [geonol, (4S,4aS,8aR)-4,8a-Dimethyl-1,2,3,4,5,6,7,-octahydronaphthalen-4a-ol]
activation of Olfr1322 (Olfr1322 [5]): concentration-dependent and specific activation
activation of Olfr1487 (Olfr1487 [6]): concentration-dependent and specific activation
activation of Olfr339 (Olfr339 [7]): concentration-dependent and specific activation
activation of OR11A1 (OR11A1 [8]): concentration-dependent and specific activation
activation of Olfr96 (Olfr96 [9]): concentration-dependent and specific activation

EC50 (OR11A1 [10]): 2.8 µM
EC50 (Olfr96 [11]): 0.0168 µM
EC50 (Olfr1322 [12]): 37.5 µM
EC50 (Olfr1487 [13]): 3.58 µM
EC50 (Olfr339 [14]): 1.28 µM
Molecule: CC1CCCC2(C)CCCCC12O [Geonol, (4S,4aS,8aR)-4,8a-Dimethyl-1,2,3,4,5,6,7,-octahydronaphthalen-4a-ol]

Molecule: C=CC(O)CCCCC (stereo not shown) [1-octen-3-ol]
activation of Olfr398 (Olfr398): concentration-dependent and specific activation
activation of Olfr120 (Olfr120): concentration-dependent and specific activation
activation of Olfr93 (Olfr93): concentration-dependent and specific activation
activation of Olfr1364 (Olfr1364): concentration-dependent and specific activation

IC50 ([15]; 1-octen-3-ol at single activating concentration (EC50), receptor (OR2W1 or OR1A1) not stated per compound): > 600 µM
Molecule: isobutylquinoline
% Remaining in human sensory tests (human sensory panel): 52* %
% Inhibition ([15]; normalized to baseline agonist activity, 1-octen-3-ol at EC50): 30.14%
% Inhibition [16]: 45%

EC50 (OR2W1 [17]): 214 µM
EC50 (Olfr641 [18]): 1.75 µM
EC50 (OR51I2): 13.9 µM
EC50 (Olfr263 [20]): 183 µM
Molecule: CCCC(C)=CC(=O)O [3-methyl-2-hexenoic acid]
activation of Olfr641 (Olfr641 [19]): concentration-dependent and specific activation
activation of Olfr263 (Olfr263 [3]): concentration-dependent and specific activation
activation of OR2W1 (OR2W1 [4]): concentration-dependent and specific activation
activation of OR5112 (OR5112): concentration-dependent and specific activation

— patent US20250327793A1, “METHODS OF IDENTIFYING COMPOUNDS THAT MODULATE LAUNDRY MALODOR, MOLDY MALODOR, OR SWEAT MALODOR” (Firmenich SA, priority 2017, published 2025)
